Measured values published in ChEMBL document CHEMBL4033775, “Natural-Products-Inspired Use of the gem-Dimethyl Group in Medicinal Chemistry” (J Med Chem, 2018).
Values after ≈ are worked out from the molar mass of the structure shown. Each block holds one molecule with its values, some of them ahead of it.

Key:
[1] = biological target: Insulin-like growth factor 1 receptor (Homo sapiens, UniProt P08069); assay: Antagonist activity at human GST-tagged IGF-1R (950 to […] residues) expressed in baculovirus after 5 mins in presence of [gamma33P]-ATP by top count method
Enterococcus faecalis = assay: Antibacterial activity against Enterococcus faecalis; format: functional
Staphylococcus aureus = assay: Antibacterial activity against methicillin-resistant Staphylococcus aureus; format: functional
[2] = system: Human immunodeficiency virus 1; assay: Antiviral activity against HIV1 3B infected in human H9 cells after 4 days by ELISA; format: functional, cell-based; details: Human immunodeficiency virus 1, 3B, H9, 96 h
[3] = system: Trypanosoma brucei brucei; assay: Antitrypanosomal activity against Trypanosoma brucei brucei after 72 hrs by resazurin-based fluorescence assay; format: functional
[4] = Inhibition of bacterial DNA gyrase subunit B; parameters: species or system Bacteria
[5] = system: Human immunodeficiency virus; assay: Antiviral activity against Human immunodeficiency virus assessed as reduction in maturation; format: functional; details: Human immunodeficiency virus 1
Rattus norvegicus [6] = assay: Anti-hypertensive activity in conscious spontaneously hypertensive Okamoto rat assessed as reduction in systolic blood pressure at 10 mg/kg, po measured up to 6 hrs post dose relative to control; format: functional; parameters: scale not given: the % may be the effect or the level left
[7] = biological target: Retinoic acid receptor RXR-beta (Homo sapiens, UniProt P28702); assay: Agonist activity at RXRbeta (unknown origin)
Chain of Retinoic acid receptor RXR-beta (P28702 whole entry): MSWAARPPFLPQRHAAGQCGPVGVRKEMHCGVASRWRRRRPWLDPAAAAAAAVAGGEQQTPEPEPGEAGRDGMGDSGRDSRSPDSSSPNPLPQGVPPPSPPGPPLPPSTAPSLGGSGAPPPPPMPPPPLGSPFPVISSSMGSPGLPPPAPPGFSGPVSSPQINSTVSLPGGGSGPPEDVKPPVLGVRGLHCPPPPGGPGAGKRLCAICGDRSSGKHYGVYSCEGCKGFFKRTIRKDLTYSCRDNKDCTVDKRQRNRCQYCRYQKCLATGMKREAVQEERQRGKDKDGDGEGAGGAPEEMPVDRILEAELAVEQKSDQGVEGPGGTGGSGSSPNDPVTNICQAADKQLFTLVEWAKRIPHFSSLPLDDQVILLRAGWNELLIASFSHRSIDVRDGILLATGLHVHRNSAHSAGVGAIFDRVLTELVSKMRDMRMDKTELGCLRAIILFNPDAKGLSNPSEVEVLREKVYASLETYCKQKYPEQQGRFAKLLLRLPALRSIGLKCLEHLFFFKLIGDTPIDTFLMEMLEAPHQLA

[8] = biological target: Retinoic acid receptor RXR-gamma (Homo sapiens, UniProt P48443); assay: Agonist activity at RXRgamma (unknown origin)
Chain of Retinoic acid receptor RXR-gamma (P48443 whole entry): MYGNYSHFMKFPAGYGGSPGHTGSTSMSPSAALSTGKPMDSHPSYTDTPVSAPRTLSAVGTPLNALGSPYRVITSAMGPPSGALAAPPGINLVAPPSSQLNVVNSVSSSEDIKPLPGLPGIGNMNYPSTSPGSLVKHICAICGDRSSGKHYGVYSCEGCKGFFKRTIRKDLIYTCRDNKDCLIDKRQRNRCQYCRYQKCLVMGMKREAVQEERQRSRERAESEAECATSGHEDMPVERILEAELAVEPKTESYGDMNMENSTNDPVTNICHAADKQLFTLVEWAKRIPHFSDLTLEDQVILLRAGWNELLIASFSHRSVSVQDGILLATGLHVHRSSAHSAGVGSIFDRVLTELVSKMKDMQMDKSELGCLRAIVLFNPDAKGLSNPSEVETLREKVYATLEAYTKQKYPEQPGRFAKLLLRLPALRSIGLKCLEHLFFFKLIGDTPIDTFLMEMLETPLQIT

[9] = biological target: Retinoic acid receptor alpha (Homo sapiens, UniProt P10276); assay: Agonist activity at RARaplha (unknown origin)
Chain of Retinoic acid receptor alpha (P10276 whole entry): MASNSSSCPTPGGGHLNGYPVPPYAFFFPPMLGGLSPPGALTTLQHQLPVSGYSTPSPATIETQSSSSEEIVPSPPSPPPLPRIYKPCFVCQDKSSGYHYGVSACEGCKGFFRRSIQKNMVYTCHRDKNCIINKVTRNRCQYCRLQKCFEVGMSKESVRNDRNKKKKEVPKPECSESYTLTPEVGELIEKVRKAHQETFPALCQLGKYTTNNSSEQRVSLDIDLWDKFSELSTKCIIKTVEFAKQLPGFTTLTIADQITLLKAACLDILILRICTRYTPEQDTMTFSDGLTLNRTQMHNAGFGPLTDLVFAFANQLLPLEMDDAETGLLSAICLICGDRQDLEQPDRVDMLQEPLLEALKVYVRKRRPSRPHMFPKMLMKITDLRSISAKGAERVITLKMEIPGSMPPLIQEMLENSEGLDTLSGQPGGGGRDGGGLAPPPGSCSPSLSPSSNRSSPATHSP

[10] = biological target: Retinoic acid receptor gamma (Homo sapiens, UniProt P13631); assay: Agonist activity at RARgamma (unknown origin)
Chain of Retinoic acid receptor gamma (P13631 whole entry): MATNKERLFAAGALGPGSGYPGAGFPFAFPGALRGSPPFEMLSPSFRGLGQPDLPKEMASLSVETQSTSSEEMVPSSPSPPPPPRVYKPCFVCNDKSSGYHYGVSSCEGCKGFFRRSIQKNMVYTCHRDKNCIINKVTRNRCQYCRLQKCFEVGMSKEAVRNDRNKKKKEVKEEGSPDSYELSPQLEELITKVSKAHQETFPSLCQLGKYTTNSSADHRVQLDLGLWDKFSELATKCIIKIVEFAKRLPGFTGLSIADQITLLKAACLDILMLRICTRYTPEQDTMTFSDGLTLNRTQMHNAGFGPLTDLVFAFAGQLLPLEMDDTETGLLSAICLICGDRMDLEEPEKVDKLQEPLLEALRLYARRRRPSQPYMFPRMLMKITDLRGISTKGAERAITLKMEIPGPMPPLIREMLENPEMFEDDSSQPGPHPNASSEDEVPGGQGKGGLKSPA

[11] = biological target: Retinoic acid receptor beta (Homo sapiens, UniProt P10826); assay: Agonist activity at RARbeta (unknown origin)
Chain of Retinoic acid receptor beta (P10826 whole entry): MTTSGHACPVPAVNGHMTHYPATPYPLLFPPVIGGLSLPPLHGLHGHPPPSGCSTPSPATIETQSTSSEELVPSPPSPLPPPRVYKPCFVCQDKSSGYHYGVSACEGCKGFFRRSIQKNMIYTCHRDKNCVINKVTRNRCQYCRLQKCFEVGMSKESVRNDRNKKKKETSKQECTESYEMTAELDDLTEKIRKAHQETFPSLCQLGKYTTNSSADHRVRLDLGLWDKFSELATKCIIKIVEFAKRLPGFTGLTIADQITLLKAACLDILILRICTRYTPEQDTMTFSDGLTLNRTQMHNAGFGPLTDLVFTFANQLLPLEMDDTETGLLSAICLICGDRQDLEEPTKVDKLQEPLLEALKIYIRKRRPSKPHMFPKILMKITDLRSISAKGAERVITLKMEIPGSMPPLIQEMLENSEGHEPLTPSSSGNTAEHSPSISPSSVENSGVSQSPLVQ

[12] = biological target: 5-hydroxytryptamine receptor 2A (Homo sapiens, UniProt P28223)
Chain of 5-hydroxytryptamine receptor 2A (P28223 whole entry): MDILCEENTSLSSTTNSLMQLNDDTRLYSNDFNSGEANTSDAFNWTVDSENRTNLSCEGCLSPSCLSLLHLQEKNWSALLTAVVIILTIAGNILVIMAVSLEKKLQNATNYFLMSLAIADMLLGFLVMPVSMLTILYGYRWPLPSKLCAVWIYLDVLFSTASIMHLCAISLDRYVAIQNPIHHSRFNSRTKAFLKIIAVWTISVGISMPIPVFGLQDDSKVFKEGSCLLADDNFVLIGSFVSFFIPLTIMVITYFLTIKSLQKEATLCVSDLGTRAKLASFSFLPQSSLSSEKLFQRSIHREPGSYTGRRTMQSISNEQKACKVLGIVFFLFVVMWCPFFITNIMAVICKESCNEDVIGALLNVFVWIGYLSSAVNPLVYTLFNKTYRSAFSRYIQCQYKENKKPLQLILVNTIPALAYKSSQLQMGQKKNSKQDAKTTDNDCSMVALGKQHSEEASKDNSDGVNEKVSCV

D(2) dopamine receptor = D(2) dopamine receptor (Homo sapiens, UniProt P14416); assay: Displacement of [3H]methylspiperone from human D2 receptor expressed in HEK cells; format: cell-based
Chain of D(2) dopamine receptor (P14416 whole entry): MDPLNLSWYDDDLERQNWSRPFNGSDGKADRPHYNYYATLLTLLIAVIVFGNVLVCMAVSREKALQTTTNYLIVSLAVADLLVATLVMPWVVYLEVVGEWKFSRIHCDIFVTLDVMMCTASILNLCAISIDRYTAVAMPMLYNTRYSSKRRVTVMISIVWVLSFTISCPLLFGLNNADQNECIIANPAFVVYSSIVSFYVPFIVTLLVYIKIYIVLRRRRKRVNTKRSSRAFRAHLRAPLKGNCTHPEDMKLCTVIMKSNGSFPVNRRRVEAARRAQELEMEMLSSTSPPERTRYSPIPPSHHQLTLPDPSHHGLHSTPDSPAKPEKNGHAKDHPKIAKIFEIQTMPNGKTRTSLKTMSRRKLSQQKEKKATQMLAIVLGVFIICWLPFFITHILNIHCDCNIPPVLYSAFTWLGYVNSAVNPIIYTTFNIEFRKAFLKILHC

1A9 = assay: Cytotoxicity against human 1A9 cells; format: functional, cell-based
[13] = system: Human immunodeficiency virus 1; assay: Antiviral activity against HIV1; format: functional
Clostridioides difficile = assay: Antibacterial activity against Clostridium difficile; format: functional
Matrilysin = biological target: T1, Matrilysin (Homo sapiens, UniProt P09237); assay: Inhibition of MMP7 (unknown origin) expressed in Escherichia coli BL21(DE3) using Mca-Pro-Leu-Gly-Leu-Dpa-Ala-Arg-NH2 as substrate after 20 to 30 mins by spectrofluorimetric analysis
T1 sequence (P09237 whole entry): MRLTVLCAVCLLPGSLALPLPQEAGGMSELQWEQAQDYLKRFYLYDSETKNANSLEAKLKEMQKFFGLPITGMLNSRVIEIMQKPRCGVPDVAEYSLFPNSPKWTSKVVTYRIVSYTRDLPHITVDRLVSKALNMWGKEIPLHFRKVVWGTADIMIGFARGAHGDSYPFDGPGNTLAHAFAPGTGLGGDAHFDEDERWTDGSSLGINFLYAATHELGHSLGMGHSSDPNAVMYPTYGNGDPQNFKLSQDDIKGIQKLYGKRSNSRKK

[14] = Clearance in po dosed rat; format: ADME, organism-based; details: in vivo
Prothrombin [15] = biological target: Prothrombin (Bos taurus, UniProt P00735); assay: Inhibition of bovine plasma thrombin using chromogenix AB as substrate after 30 secs by UV-spectrophotometry
Rattus norvegicus [16] = assay: Anti-hypertensive activity in conscious spontaneously hypertensive Okamoto rat assessed as reduction in systolic blood pressure at 1 mg/kg, po measured up to 6 hrs post dose relative to control; format: functional; parameters: scale not given: the % may be the effect or the level left
Rattus norvegicus [17] = assay: Anti-hypertensive activity in conscious spontaneously hypertensive Okamoto rat assessed as reduction in systolic blood pressure at 0.3 mg/kg, po measured up to 6 hrs post dose relative to control; format: functional; parameters: scale not given: the % may be the effect or the level left
Rattus norvegicus [18] = assay: Anti-hypertensive activity in conscious spontaneously hypertensive Okamoto rat assessed as reduction in systolic blood pressure at 0.1 mg/kg, po measured up to 6 hrs post dose relative to control; format: functional; parameters: scale not given: the % may be the effect or the level left
Prothrombin [19] = biological target: Prothrombin (Homo sapiens, UniProt P00734); assay: Inhibition of human plasma thrombin using chromogenix AB as substrate after 30 secs by UV-spectrophotometry
[20] = biological target: 5-hydroxytryptamine receptor 2C (Homo sapiens, UniProt P28335); assay: Agonist activity at human 5-HT2C receptor expressed in mouse NIH/3T3 cells assessed as induction of IP3 formation after 0.5 hrs; format: functional, cell-based
Chain of 5-hydroxytryptamine receptor 2C (P28335 whole entry): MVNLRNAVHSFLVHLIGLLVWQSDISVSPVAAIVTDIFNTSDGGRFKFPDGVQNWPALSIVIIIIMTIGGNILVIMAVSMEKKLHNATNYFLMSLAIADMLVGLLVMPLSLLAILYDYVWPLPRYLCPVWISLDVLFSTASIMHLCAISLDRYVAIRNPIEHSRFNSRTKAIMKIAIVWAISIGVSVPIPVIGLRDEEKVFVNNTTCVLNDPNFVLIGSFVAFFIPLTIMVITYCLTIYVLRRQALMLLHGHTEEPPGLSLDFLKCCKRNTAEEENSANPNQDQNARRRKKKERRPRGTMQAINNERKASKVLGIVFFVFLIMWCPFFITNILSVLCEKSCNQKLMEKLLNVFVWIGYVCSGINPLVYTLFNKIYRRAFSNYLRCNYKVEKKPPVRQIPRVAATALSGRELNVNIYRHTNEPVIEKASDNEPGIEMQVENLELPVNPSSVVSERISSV

- IC50 [1]: 10 nM
SMILES: CC(C)(Oc1cccc(-c2cn([C@H]3C[C@@H](CN4CCC4)C3)c3ncnc(N)c23)c1)[C@@H]1CCCO1

SMILES: Cc1cc(O)cc(O)c1-c1cc(O)cc2cc3c(c(O)c12)C(=O)c1c(O)cc(O)c(Cl)c1C3(C)C
- MIC (Enterococcus faecalis): 0.8 µg/mL (≈ 1.62 µM)
- MIC (Staphylococcus aureus): 3.1 µg/mL (≈ 6.29 µM)

SMILES: CC(=O)O[C@@H]1[C@H](OC(=O)CC(C)C)c2c(ccc3ccc(=O)oc23)OC1(C)C [SUKSDORFIN]
- IC50 [2]: 2600 nM

SMILES: CC1(C)OB(O)c2cc(NC(=O)c3ccc(F)cc3C(F)(F)F)ccc21 [ACOZIBOROLE]
- IC50 [3]: 556 nM

SMILES: CO[C@@H]1[C@@H](OC(=O)c2ccc(C)[nH]2)[C@@H](O)[C@H](Oc2ccc3c(O)c(NC(=O)c4ccc(O)c(CC=C(C)C)c4)c(=O)oc3c2Cl)OC1(C)C [CHLOROBIOCIN]
- IC50 [4]: 30 nM

SMILES: C=C(C)[C@@H]1CC[C@]2(C(=O)O)CC[C@]3(C)[C@H](CC[C@@H]4[C@@]5(C)CC[C@H](OC(=O)CC(C)(C)C(=O)O)C(C)(C)[C@@H]5CC[C@]43C)[C@@H]12 [BEVIRIMAT]
- EC50 [5]: 10.3 nM

SMILES: CC1Oc2ccc([N+](=O)[O-])cc2[C@@H](N2CCCC2=O)[C@@H]1O (stereo not given in full)
- Activity (Rattus norvegicus [6]): 34%

- EC50 [7]: 770 nM
- EC50 [8]: 600 nM
- EC50 [9]: > 10000 nM
- EC50 [10]: > 10000 nM
- EC50 [11]: > 10000 nM
SMILES: C=C(c1ccc(C(=O)O)cc1)c1cc2c(cc1C)C(C)(C)CCC2

- Ki [12]: 3630 nM
- Ki (D(2) dopamine receptor): 4320 nM
SMILES: CC1(C)CC(=O)N(CCCCN2CCN(c3ncccn3)CC2)C(=O)C1 [GEPIRONE]

SMILES: CC(=O)O[C@@]12CO[C@@H]1C[C@H](O)[C@@]1(C)C(=O)[C@H](O)C3=C(C)[C@@H](OC(=O)[C@H](O)[C@@H](NC(=O)OC(C)(C)C)c4ccccc4)C[C@@](O)([C@@H](OC(=O)c4ccccc4)[C@H]21)C3(C)C [DOCETAXEL ANHYDROUS]
- IC50 (1A9): 3.55 nM

SMILES: CCCc1cc(=O)oc2c3c(c4c(c12)OC(C)(C)C=C4)O[C@H](C)[C@@H](C)[C@@H]3O [CALANOLIDE A]
- EC50 [13]: 2.85 nM

SMILES: CCc1c(Cl)c(O)c(Cl)c(O)c1C(=O)O[C@H]1[C@H](O)[C@H](OC)[C@H](OC/C2=C\C=C\C[C@H](O)/C(C)=C/[C@H](CC)[C@@H](O[C@@H]3OC(C)(C)[C@@H](OC(=O)C(C)C)[C@H](O)[C@@H]3O)/C(C)=C/C(C)=C/C[C@H]([C@@H](C)O)OC2=O)O[C@@H]1C
- MIC90 (Clostridioides difficile): 0.125 to 0.25 µg/mL (≈ 0.118 to 0.236 µM)

- IC50 (Matrilysin): 2030 nM
SMILES: COc1ccc(S(=O)(=O)N2CCSCC2C(=O)NO)cc1 (stereo not given)

- CL/F [14]: 120 mL/min/kg
SMILES: N=C(N)NC(=O)[C@H]1C[C@@H]1c1cccc2c1CCO2

- Ki (Prothrombin [15]): 50 nM
SMILES: C[C@H]1CNc2c(cccc2S(=O)(=O)N[C@@H](CCCNC(=N)N)C(=O)N2CCC(CCO)CC2)C1

SMILES: C=C(C)[C@@H]1CC[C@]2(C(=O)O)CC[C@]3(C)[C@H](CC[C@@H]4[C@@]5(C)CC[C@H](O)C(C)(C)[C@@H]5CC[C@]43C)[C@@H]12 [BETULINIC ACID]
- EC50 [13]: 1400 nM

SMILES: CC1(C)Oc2ccc(C#N)cc2C(N2CCCC2=O)C1O (racemic) [CROMAKALIM]
- Activity (Rattus norvegicus [16]): 47%
- Activity (Rattus norvegicus [17]): 39%
- Activity (Rattus norvegicus [18]): 13%

- Ki (Prothrombin [15]): 50 nM
- Ki (Prothrombin [19]): 40 nM
SMILES: CC1CNc2c(cccc2S(=O)(=O)N[C@@H](CCCNC(=N)N)C(=O)N2CCC(CCO)CC2)C1 (mixture of isomers)

SMILES: COc1ccc2c(c1)-c1c(cnn1C[C@H](C)N)C2
- Ki [20]: 2.51 nM

SMILES: CC1=C[C@@H]2[C@@H]([C@@H]3[C@H]1\C=C/C=C/C=C\[C@@H](O)[C@H](C)[C@H](O)C/C=C(C)/C=C/C(=O)O[C@H]3c1ccc(O)cc1)C(C)(C)C[C@@]2(C)O
- MIC (Enterococcus faecalis): 0.3 µg/mL (≈ 0.51 µM)

SMILES: C/C(=C\c1csc(C)n1)[C@@H]1C[C@@H]2O[C@]2(C)CCC[C@H](C)[C@H](O)[C@@H](C)C(=O)C(C)(C)[C@@H](O)CC(=O)O1 [PATUPILONE]
- IC50 (1A9): 0.06 nM
